In US20120040976A1, “SMALL MOLECULE IMMUNOMODULATORS FOR ALZHEIMER'S DISEASE” (HUMAN BIOMOLECULAR RESEARCH INSTITUTE, priority 2008, published 2012):

Experiments:
[1] = Metabolic stability in human liver microsomes; type: in vitro ADME; details: human, read-out: Half life, t1/2 HLM
[2] = Chemical stability (H2O, pH 7.4); type: physicochemical
Average permeability = type: in vitro ADME; details: not told
TLR 1 = TLR 1 transcription ratio, AD patient / control PBMCs (qPCR); type: cell-based, human; details: Aβ stimulation
Procedure: (§1) qPCR reactions of cultured monocyte cDNAs. One μL total cellular cDNA per reaction is used in triplicate reactions for each test gene, and for each culture treatment. SYBR-Green reactions were run on a Continuous Fluorescence real-time thermocycler and analyzed. Cycle threshold (Ct) values are recorded for each replicate reaction, and are then averaged and normalized against mean Ct values from one or more control genes. Fold-expression differences relative to untreated cells are determined using the 2^−ΔΔCt method as previously described. Data from the curcumin concentration range are plotted in order to determine EC50 values (concentrations producing one-half maximal stimulant activity), which are used for comparisons of potency between different compounds. Data are also evaluated for each gene with regard to sensitivity, maximally effective concentration of curcuminoid, response to Aβ, and overall magnitude of fold-expression changes.
(§2) MGAT3 and/or TLR transcription were tested by qPCR in human monocyte cells treated with curcuminoids and compared the results to those treated with vehicle (Table 7). As discussed above, activation or up-regulation of macrophage MGAT3 or TLR's results in many functional outcomes, including the enhancement of […] and removal of Aβ, increased apoptosis, secretion of inflammatory cytokines, and other anti-AD antimicrobial activities. […]

TLR 5 = TLR 5 transcription ratio, AD patient / control PBMCs (qPCR); type: cell-based, human; details: Aβ stimulation
Procedure: as §1, §2

TLR 7 = TLR 7 transcription ratio, AD patient / control PBMCs (qPCR); type: cell-based, human; details: Aβ stimulation
Procedure: as §1, §2

[3] = tested on: cortical neurons in hAPP-transfected rat brain slices; assay: Rat brain slice AD model (hAPP-induced neurodegeneration); type: cell-based; details: rat brain slices transfected with EYFP and hAPP, three concentrations, 72 hrs (FIG. 8)
From the text: A rodent brain slice model for AD has been developed where the expression of human APP by particle-mediated gene transfer (“biolistics”) leads to typical signs of neuronal dystrophy, and ultimately the degeneration and clearance of the cell body with a few days. Brain slice preparations offer a powerful experimental system because they preserve the three-dimensional tissue architecture and local environment of neurons and glia far better than dissociated cell culture. As such, drug lead candidates that show neuroprotective activity in brain-tissue based disease models have a much increased ability to predict efficacy in vivo and ultimately in the clinic.
Preparation of Brain Slice Explants. Cd Sprague-Dawley Rat Pups are Used at Postnatal day 10. Brains are cut into 250 μm coronal slices on a vibratome in chilled medium baths. Approximately 6 such slices can be cut from each rat brain; each are divided into “hemi-coronal” slices which are placed in individual 6-well transwell inserts. […]
Assessment of cortical neuron health. […] Representative images are captured using a digital camera on a fluorescence microscope. After 3 days, cortical neurons are scored. […] Statistical significance of the neuronal counts in compound-treated slices is evaluated by ANOVA analysis, followed by post hoc Dunnett's analysis at the p≦0.05 confidence level. […]

For `O=C(/C=C(O)/C=C/c1ccc(O)cc1)/C=C/c1ccc(O)cc1` [Compound 1, 5-Hydroxy-1,7-bis-(4-hydroxy-phenyl)-hepta-1,4,6-trien-3-one, reference compound], the half-life [1] was 16.4 min, the half-life ([2]; water (aqueous solution), pH 7.4, read-out: Chemical stability t1/2 pH 7.4 (converted)) was 14 min and the half-life ([2]; water, H2O, read-out: Chemical stability t1/2 H2O (converted)) was 60 min. For the same molecule, the Papp (Average permeability) was 305 ± 9 ×10⁻⁶ cm/s, the “Relative ratio of TLR 1 transcription in AD patient / control PBMC's” value (TLR 1) was “TLR 1 ++ ((++) indicates a ratio of 1.5-2.0)” and the “Relative ratio of TLR 5 transcription in AD patient / control PBMC's” value (TLR 5) was “TLR 5 +++ ((+++ to ++++) indicates a ratio of 2.0 and above)”. The “Relative ratio of TLR 7 transcription in AD patient / control PBMC's” value (TLR 7) was “TLR 7 ++ ((++) indicates a ratio of 1.5-2.0)” and the “Neuroprotective effect against hAPP-induced neurodegeneration” value [3] was “dose-dependent trend for AD related neuroprotection”.
